Our source for the relative binding affinity (RBA) values is ChEMBL document CHEMBL1909606, “Polarization in the structures of uracil and thiouracils: Implication for binding with orotidine 5'-monophosphate decarboxylase” (Bioorg Med Chem Lett, 2011).

A short description of this test: Binding affinity to orotidine-5'-monophosphate decarboxylase relative to uracil.

`Oc1nccc(S)n1` had a relative binding affinity (RBA) of 61. For `O=c1cc[nH]c(=S)[nH]1` the value was 29.
